From EP1308501A1, “Fermented beverages comprising yeast transformed by the ATF2 gene” (Pernod-Ricard, priority 2001, dated 2003)
Where two headings read alike, the source gives them in different places.

Legend:
[1] = tested on: alcool acétyle transférase; settings: partially purified enzyme, cited from earlier work
Atf2p = target: T1, Atf2p (Saccharomyces cerevisiae, UniProt P53296); settings: cited from earlier work
T1 sequence (P53296 1-535): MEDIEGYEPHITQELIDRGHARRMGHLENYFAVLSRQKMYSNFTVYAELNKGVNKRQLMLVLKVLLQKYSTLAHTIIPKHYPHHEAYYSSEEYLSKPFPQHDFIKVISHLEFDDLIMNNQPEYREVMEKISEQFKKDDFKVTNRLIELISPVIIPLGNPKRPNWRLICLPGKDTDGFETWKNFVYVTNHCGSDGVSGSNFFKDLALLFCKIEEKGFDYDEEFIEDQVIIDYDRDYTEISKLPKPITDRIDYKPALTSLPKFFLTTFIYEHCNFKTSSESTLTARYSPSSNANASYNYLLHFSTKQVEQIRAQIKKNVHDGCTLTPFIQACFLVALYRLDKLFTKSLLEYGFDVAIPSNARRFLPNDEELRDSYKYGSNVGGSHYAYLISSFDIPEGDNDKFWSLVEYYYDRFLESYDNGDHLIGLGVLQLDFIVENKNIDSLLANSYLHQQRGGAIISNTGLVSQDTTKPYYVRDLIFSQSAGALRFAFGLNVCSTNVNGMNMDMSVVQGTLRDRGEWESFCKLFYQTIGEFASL

production d'esters = settings: six mois après la mise en bouteille; cited from earlier work
YRC1001/pRC124 = assay: Bioconversion of alcohols added to malt medium by a strain overexpressing ATF2; type: cell-based, Saccharomyces cerevisiae
Experimental: Transformation dans la souche […], sous contrôle du promoteur proTEF1, le gène ATF2 (pRC124). Les précultures sont réalisées dans du milieu liquide SC20 (Sherman, 1991) dépourvu d'uracile et selon la même procédure que dans l'exemple 3. Les cultures sont ensemencées comme décrit précédemment dans du milieu malt, cette fois non glucosé. Ce dernier est supplémenté en leucine, lysine et histidine. A ce milieu malt, on ajoute juste avant ensemencement des alcools à raison de 100 μg/ml. Après fermentation pendant 98 heures, on analyse -comme décrit précédemment- les alcools et leurs produits dérivés (esters […] correspondant à l'alcool et son ester éthylé). La capacité de bioconversion est ensuite exprimée par le rapport « ester acétylé de l'alcool ajouté »/« somme des alcools et produits dérivés ». Cette valeur donne une indication […] au milieu extérieur par la souche de levure transformée. Les résultats sont […] Tableau 4.

[2] = alcohol added at 100 µg/ml, malt non glucosé, 98 heures, ratio ester acétylé de l'alcool ajouté / somme des alcools et produits dérivés

Structure (SMILES): CC(=O)SCCNC(=O)CCNC(=O)[C@H](O)C(C)(C)COP(=O)(O)OP(=O)(O)OC[C@H]1O[C@@H](n2cnc3c(N)ncnc32)[C@H](O)[C@@H]1OP(=O)(O)O [acétyle-CoA]
- Km ([1]; co-factor): 25 to 40 µM
- Km (Atf2p): 1 µM

Structure (SMILES): CC(=O)OCCC(C)C [acétate d'isoamyle]
- réduction des esters acétylés (production d'esters): ~2 fois

Structure (SMILES): CC(=O)OCCc1ccccc1 [acétatede 2-phényléthyle]
- réduction des esters acétylés (production d'esters): ~2 fois

Structure (SMILES): CC(C)CCO [isoamylalcool]
- Bioconversion par YRC1001/pRC124 (YRC1001/pRC124; [2]): 0,045
- Km ([1]; acceptor): 25000 µM

Structure (SMILES): CC(=O)[C@H]1CC[C@H]2[C@@H]3CC=C4C[C@@H](O)CC[C@]4(C)[C@H]3CC[C@]12C [pregnénolone]
- Km (Atf2p): 0.5 µM

Structure (SMILES): CCCCO [n-butanol]
- Bioconversion par YRC1001/pRC124 (YRC1001/pRC124): 0,021

Structure (SMILES): OCc1ccccc1 [benzylalcool]
- Bioconversion par YRC1001/pRC124 (YRC1001/pRC124; [2]): 0,163
